Laboratory results from the NIST ThermoML archive (doi:10.1021/je050001c).
Structures can show the parent of a compound that is named as a salt. Numbers after ± are expanded uncertainties.

Conditions: 101.33 kPa, Liquid; for viscosity: Falling or rolling sphere viscometry

Structure (SMILES)	mass density (293.15 K) [kg/m3]	viscosity (293.15 K) [mPa·s]	mass density (298.15 K) [kg/m3]	viscosity (298.15 K) [mPa·s]	mass density (303.15 K) [kg/m3]	viscosity (303.15 K) [mPa·s]	mass density (308.15 K) [kg/m3]	viscosity (308.15 K) [mPa·s]	mass density (313.15 K) [kg/m3]	viscosity (313.15 K) [mPa·s]	mass density (318.15 K) [kg/m3]	viscosity (318.15 K) [mPa·s]	mass density (323.15 K) [kg/m3]	viscosity (323.15 K) [mPa·s]	mass density (328.15 K) [kg/m3]	viscosity (328.15 K) [mPa·s]	mass density (333.15 K) [kg/m3]	viscosity (333.15 K) [mPa·s]	mass density (338.15 K) [kg/m3]	viscosity (338.15 K) [mPa·s]	other results
CCCC(=O)OCCC(C)C [3-methylbutyl butanoate]	866.13 ± 5.6	1.044 ± 0.014	862.04 ± 5.6	0.967 ± 0.013	859.14 ± 5.7	0.897 ± 0.013	857.08 ± 5.7	0.836 ± 0.012	853.42 ± 5.7	0.781 ± 0.012	850.11 ± 5.7	0.731 ± 0.011	845.78 ± 5.7	0.686 ± 0.011	842.31 ± 5.7	0.646 ± 0.011	840.73 ± 5.8	0.609 ± 0.01	835.45 ± 5.8	0.575 ± 0.01	mass density (343.15 K): 832.76 ± 5.8 kg/m3; viscosity (343.15 K): 0.545 ± 0.01 mPa·s
CC(=O)OCCC(C)C [3-methylbutyl ethanoate]	878.24 ± 12	0.888 ± 0.012	876.01 ± 12	0.827 ± 0.011	875.94 ± 12	0.773 ± 0.011	873.1 ± 12	0.724 ± 0.011	870.15 ± 12	0.678 ± 0.01	867.32 ± 12	0.638 ± 0.01	864.31 ± 12	0.601 ± 0.01	860.14 ± 12	0.567 ± 0.01	857.98 ± 12	0.536 ± 0.009	854.05 ± 12	0.507 ± 0.009	mass density (343.15 K): 851.07 ± 12 kg/m3; viscosity (343.15 K): 0.481 ± 0.009 mPa·s
CCC/C=C/COC(C)=O [(E)-2-hexenyl acetate]	897.84 ± 3	0.901 ± 0.012	894.32 ± 3.1	0.831 ± 0.011	891.78 ± 3.1	0.77 ± 0.011	888.46 ± 3.2	0.715 ± 0.011	884.35 ± 3.2	0.666 ± 0.01	880.19 ± 3.3	0.622 ± 0.01	876.14 ± 3.4	0.582 ± 0.01	872.81 ± 3.4	0.547 ± 0.01	867.49 ± 3.5	0.514 ± 0.009			
CC/C=C\CCOC(C)=O [(Z)-3-hexenyl acetate]	900.82 ± 2.9	0.893 ± 0.011	897.14 ± 3	0.823 ± 0.01	893.14 ± 3	0.763 ± 0.01	890.28 ± 3.1	0.708 ± 0.01	886.19 ± 3.2	0.66 ± 0.01	881.43 ± 3.2	0.616 ± 0.009	877.89 ± 3.3	0.576 ± 0.009	875.21 ± 3.4	0.542 ± 0.009	871.43 ± 3.4	0.509 ± 0.009			
CC/C=C\CCOC=O [(Z)-3-hexenyl formate]	909.15 ± 3	0.599 ± 0.012	908.13 ± 3	0.561 ± 0.012	906.6 ± 3.1	0.527 ± 0.011	904.95 ± 3.1	0.496 ± 0.011	903.17 ± 3.1	0.469 ± 0.011	901.19 ± 3.1	0.443 ± 0.01	898.99 ± 3.2	0.421 ± 0.01	896.72 ± 3.2	0.4 ± 0.01	894.16 ± 3.3	0.38 ± 0.01	891.54 ± 3.3	0.363 ± 0.01	mass density (343.15 K): 888.73 ± 3.3 kg/m3; viscosity (343.15 K): 0.346 ± 0.01 mPa·s
CCCCOC(=O)CCC [butyl butanoate]	872.45 ± 3.4	0.948 ± 0.011	869.14 ± 3.5	0.876 ± 0.011	866.1 ± 3.5	0.812 ± 0.011	862.19 ± 3.6	0.755 ± 0.01	858.94 ± 3.6	0.705 ± 0.01	854.31 ± 3.7	0.659 ± 0.01	851.47 ± 3.8	0.618 ± 0.01	848.01 ± 3.8	0.581 ± 0.009	846.22 ± 3.8	0.548 ± 0.009	844.03 ± 3.9	0.517 ± 0.009	mass density (343.15 K): 841.47 ± 3.9 kg/m3; viscosity (343.15 K): 0.486 ± 0.009 mPa·s
